Laboratory results: the Kinase Knowledgebase extract (Sharma et al. 2016)
pIC50: −log10 of the molar value.

Target: PIK3CG (human) (UniProt P48736)
Experiment: Inhibition of PIK3CG Kinase Activity

Sequence of PIK3CG (human) (P48736 whole entry, looked up): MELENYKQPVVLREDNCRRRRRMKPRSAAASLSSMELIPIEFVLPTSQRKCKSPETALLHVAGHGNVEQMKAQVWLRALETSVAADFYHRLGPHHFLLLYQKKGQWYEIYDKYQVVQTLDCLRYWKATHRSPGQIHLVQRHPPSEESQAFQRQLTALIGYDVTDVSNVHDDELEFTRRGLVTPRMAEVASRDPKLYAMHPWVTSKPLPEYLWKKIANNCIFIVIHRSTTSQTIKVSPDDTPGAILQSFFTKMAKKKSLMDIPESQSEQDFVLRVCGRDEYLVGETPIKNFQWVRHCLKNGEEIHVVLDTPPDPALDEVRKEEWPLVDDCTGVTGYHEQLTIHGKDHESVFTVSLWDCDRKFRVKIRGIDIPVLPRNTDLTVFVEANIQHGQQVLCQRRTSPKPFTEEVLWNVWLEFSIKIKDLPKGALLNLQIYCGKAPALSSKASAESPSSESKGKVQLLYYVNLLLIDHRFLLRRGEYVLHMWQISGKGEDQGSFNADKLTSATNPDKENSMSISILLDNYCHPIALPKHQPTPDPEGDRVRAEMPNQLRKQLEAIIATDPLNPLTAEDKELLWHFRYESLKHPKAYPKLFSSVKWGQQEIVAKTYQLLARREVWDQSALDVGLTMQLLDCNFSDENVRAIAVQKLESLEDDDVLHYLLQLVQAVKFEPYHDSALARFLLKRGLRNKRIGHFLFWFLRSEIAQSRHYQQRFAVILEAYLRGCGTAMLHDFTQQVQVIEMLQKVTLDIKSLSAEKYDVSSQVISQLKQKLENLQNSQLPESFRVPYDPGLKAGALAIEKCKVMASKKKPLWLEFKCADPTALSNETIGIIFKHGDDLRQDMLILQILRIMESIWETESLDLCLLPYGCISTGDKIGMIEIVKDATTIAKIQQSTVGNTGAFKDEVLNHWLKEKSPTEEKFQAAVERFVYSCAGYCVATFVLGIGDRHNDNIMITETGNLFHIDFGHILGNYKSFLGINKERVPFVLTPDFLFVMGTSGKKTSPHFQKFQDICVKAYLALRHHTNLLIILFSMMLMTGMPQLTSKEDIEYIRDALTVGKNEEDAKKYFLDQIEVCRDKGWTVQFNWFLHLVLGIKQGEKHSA

pIC50, > 5.00:
Nc1nc2ccc(-c3cncc(S(=O)(=O)Nc4ccccc4)c3)cn2n1
CC1(NS(=O)(=O)c2cncc(-c3ccc4nc(N)nn4c3)c2)CCC1
COc1cc(-c2ccc3nc(N)nn3c2)cc(OC)c1OC
CNS(=O)(=O)c1cncc(-c2cc(F)c3nc(N)nn3c2)c1
COc1ccc(-c2ccc3nc(N)nn3c2)cc1O
Nc1nc2ccc(-c3cncc(S(=O)(=O)NC4CCOCC4)c3)cn2n1
Nc1nc2ccc(-c3cncc(S(=O)(=O)Nc4cccc(OC(F)(F)F)c4)c3)cn2n1
COc1ccc(-c2ccc3nc(N)nn3c2)cc1
CN(Cc1cccc(Cl)c1Cl)S(=O)(=O)c1cncc(-c2ccc3nc(N)nn3c2)c1
Cn1cc(-c2ccc3nc(N)nn3c2)cn1
Nc1nc2ccc(-c3cncc(S(=O)(=O)N4CCNCC4)c3)cn2n1
Nc1nc2ccc(-c3ccc4c(c3)OCO4)cn2n1
Nc1nc2ccc(-c3cncc(Oc4ccccc4)c3)cn2n1
CC(C)c1ccc(S(=O)(=O)Nc2cncc(-c3ccc4nc(N)nn4c3)c2)cc1
Nc1nc2ccc(-c3cncc(S(=O)(=O)Nc4ccc(F)cc4)c3)cn2n1
Nc1nc2c(F)cc(-c3cncc(S(=O)(=O)N4CCC4)c3)cn2n1
CN(C)CCN(C)S(=O)(=O)c1cncc(-c2ccc3nc(N)nn3c2)c1
Nc1nc2ccc(-c3cncc(NS(=O)(=O)c4ccc5ccccc5c4)c3)cn2n1
Nc1nc2ccc(-c3cncnc3)cn2n1
Nc1nc2ccc(-c3cncc(S(=O)(=O)NC4CCC(O)CC4)c3)cn2n1 (centres undefined)
Nc1nc2ccc(-c3cncc(S(=O)(=O)Nc4cc(F)cc(F)c4)c3)cn2n1
Nc1nc2ccc(-c3cncc(SCc4ccccc4)c3)cn2n1
CCN(C)S(=O)(=O)c1cncc(-c2ccc3nc(N)nn3c2)c1
Nc1nc2ccc(-c3cncc(NS(=O)(=O)c4cccc(OC(F)(F)F)c4)c3)cn2n1
Nc1nc2ccc(-c3cncc(S(=O)(=O)N4CCCC4)c3)cn2n1
Nc1nc2ccc(-c3cncc(S(=O)(=O)Nc4ccc(Cl)cc4)c3)cn2n1
COc1cccc(NS(=O)(=O)c2cncc(-c3ccc4nc(N)nn4c3)c2)c1
Nc1nc2ccc(-c3cncc(NS(=O)(=O)c4ccc(Cl)cc4)c3)cn2n1
CC(C)(C)NC(=O)c1cncc(-c2ccc3nc(N)nn3c2)c1
Nc1nc2ccc(-c3cncc(S(=O)(=O)NCCN4CCNC4=O)c3)cn2n1
Nc1nc2ccc(-c3cncc(S(=O)(=O)Cc4ccccc4)c3)cn2n1
CN(C)CCCNS(=O)(=O)c1cccc(-c2ccc3nc(N)nn3c2)c1
CC(C)(C)COc1cncc(-c2ccc3nc(N)nn3c2)c1
Nc1nc2ccc(-c3cncc(S(=O)(=O)Nc4cccc(F)c4F)c3)cn2n1
Nc1nc2ccc(-c3cncc(S(=O)(=O)Nc4ccc(F)cc4F)c3)cn2n1
Nc1nc2ccc(-c3cncc(C(F)(F)F)c3)cn2n1
Nc1nc2ccc(-c3cncc(S(=O)(=O)NCC4CCOCC4)c3)cn2n1
Nc1nc2ccc(-c3cncc(S(=O)(=O)N4CCC(F)CC4)c3)cn2n1
CN(C)CCCNS(=O)(=O)c1cncc(-c2ccc3nc(N)nn3c2)c1
Nc1nc2ccc(-c3cncc(NS(=O)(=O)c4ccccc4C(F)(F)F)c3)cn2n1
CC(C)COc1cncc(-c2ccc3nc(N)nn3c2)c1
Nc1nc2ccc(-c3cccc(O)c3)cn2n1
NCCNS(=O)(=O)c1cccc(-c2ccc3nc(N)nn3c2)c1
CC(C)(C)S(=O)(=O)c1cncc(-c2ccc3nc(N)nn3c2)c1
COc1cc(-c2ccc3nc(N)nn3c2)ccc1OC(C)C
Nc1nc2ccc(-c3cncc(NS(=O)(=O)c4cccc5ccccc45)c3)cn2n1
Nc1nc2ccc(-c3ccc(F)cc3)cn2n1
Nc1nc2ccc(-c3cncc(S(=O)(=O)NCC4CCC4)c3)cn2n1
Nc1nc2ccc(-c3cncc(S(=O)(=O)NC4CCCCC4)c3)cn2n1
CC(C)c1ccccc1NS(=O)(=O)c1cncc(-c2ccc3nc(N)nn3c2)c1
Nc1nc2ccc(-c3cncc(S(=O)(=O)Nc4cccc(OC(F)(F)C(F)F)c4)c3)cn2n1
Nc1nc2ccc(-c3cncc(NS(=O)(=O)Cc4ccccc4C(F)(F)F)c3)cn2n1
Nc1nc2ccc(-c3cc[nH]n3)cn2n1
CC(C)(C)NS(=O)(=O)c1cncc(-c2ccc3nc(N)nn3c2)c1
CN1CCN(S(=O)(=O)c2cncc(-c3ccc4nc(N)nn4c3)c2)CC1
CC(C)(NS(=O)(=O)c1cncc(-c2ccc3nc(N)nn3c2)c1)c1ccc(F)cc1
Nc1nc2ccc(-c3cncc(S(=O)(=O)NCc4ccc(Cl)c(Cl)c4)c3)cn2n1
Nc1nc2ccc(-c3cncc(S(=O)(=O)N4CCc5ccccc5C4)c3)cn2n1
CCCCN(C)S(=O)(=O)c1cncc(-c2ccc3nc(N)nn3c2)c1
Nc1nc2ccc(-c3cncc(S(=O)(=O)Nc4cccc(OC(F)F)c4)c3)cn2n1
Nc1nc2ccc(-c3cncc(NS(=O)(=O)Cc4ccc(Cl)cc4)c3)cn2n1
CN(C)CCN(C)S(=O)(=O)c1cccc(-c2ccc3nc(N)nn3c2)c1
NCCNS(=O)(=O)c1cncc(-c2ccc3nc(N)nn3c2)c1
COc1cc(-c2ccc3nc(N)nn3c2)ccc1O
Nc1nc2ccc(-c3cncc(Cl)c3)cn2n1
COc1ccc(-c2cc(F)c3nc(N)nn3c2)cc1OC
Nc1nc2ccc(-c3cncc(S(=O)(=O)NC4CCCC4)c3)cn2n1
CC(C)c1ccc(NS(=O)(=O)c2cncc(-c3ccc4nc(N)nn4c3)c2)cc1
Nc1nc2ccc(-c3ccncc3)cn2n1
Nc1nc2ccc(-c3cncc(S(=O)(=O)N4CCC(F)(F)CC4)c3)cn2n1
CC(C)CNS(=O)(=O)c1cncc(-c2ccc3nc(N)nn3c2)c1
CCCCNS(=O)(=O)c1cccc(-c2ccc3nc(N)nn3c2)c1
Nc1nc2ccc(-c3cccc(S(=O)(=O)NCC(=O)O)c3)cn2n1
COc1cccc(-c2ccc3nc(N)nn3c2)c1
Nc1nc2ccc(-c3cncc(S(=O)(=O)NCCC(F)(F)F)c3)cn2n1
CC(C)(NS(=O)(=O)c1cncc(-c2ccc3nc(N)nn3c2)c1)c1ccccc1
CCNc1cccc(-c2ccc3nc(N)nn3c2)c1
Nc1nc2ccc(-c3cncc(S(=O)(=O)NCc4ccc(F)cc4)c3)cn2n1
CC(=O)Nc1cccc(-c2ccc3nc(N)nn3c2)c1
Nc1nc2ccc(-c3cncc(S(=O)(=O)N4Cc5ccccc5C4)c3)cn2n1
Nc1nc2ccc(-c3cccc(C(F)(F)F)c3)cn2n1
Nc1nc2ccc(-c3cncc(S(=O)(=O)NCC4CC4)c3)cn2n1
CC(C)(C)CS(=O)(=O)c1cncc(-c2ccc3nc(N)nn3c2)c1
CC(C)NS(=O)(=O)c1cncc(-c2ccc3nc(N)nn3c2)c1
Nc1nc2ccc(-c3cncc(S(=O)(=O)Nc4ccccc4F)c3)cn2n1
Nc1nc2ccc(-c3cncc(S(=O)(=O)NCCCC(F)(F)F)c3)cn2n1
CC(C)c1cccc(NS(=O)(=O)c2cncc(-c3ccc4nc(N)nn4c3)c2)c1
Nc1nc2ccc(-c3cncc(NS(=O)(=O)c4cccc(C(F)(F)F)c4)c3)cn2n1
Nc1nc2ccc(-c3cnc(N)c(C(F)(F)F)c3)cn2n1
Nc1nc2ccc(-c3ccccc3)cn2n1
Nc1nc2ccc(-c3cncc(S(=O)(=O)Nc4ccc(OC(F)(F)F)cc4)c3)cn2n1
CC(C)(CN1CCCC1)NS(=O)(=O)c1cncc(-c2ccc3nc(N)nn3c2)c1
CC(C)(NS(=O)(=O)c1cncc(-c2ccc3nc(N)nn3c2)c1)C(F)(F)F
Nc1nc2ccc(-c3cccc(S(N)(=O)=O)c3)cn2n1
Nc1nc2ccc(-c3cncc(S(=O)(=O)Nc4ccc(C(F)(F)F)cc4)c3)cn2n1
CCN(CC)S(=O)(=O)c1cncc(-c2ccc3nc(N)nn3c2)c1
Nc1nc2ccc(-c3cncc(S(=O)(=O)N(Cc4ccccc4F)C4CC4)c3)cn2n1
COc1ccc(-c2ccc3nc(NC(N)=O)nn3c2)cc1OC
COc1ccc(-c2ccc3nc(N)nn3c2)cc1OC
Nc1nc2ccc(-c3cncc(NS(=O)(=O)c4ccc(C(F)(F)F)cc4)c3)cn2n1
COc1ccc(-c2cc(C)c3nc(N)nn3c2)cc1OC
COc1ccc(NS(=O)(=O)c2cncc(-c3ccc4nc(N)nn4c3)c2)cc1
Nc1nc2ccc(-c3cncc(NS(=O)(=O)Cc4ccc(C(F)(F)F)cc4)c3)cn2n1
CN(C)S(=O)(=O)c1cncc(-c2ccc3nc(N)nn3c2)c1
CC(C)(C)CNS(=O)(=O)c1cncc(-c2ccc3nc(N)nn3c2)c1
Nc1nc2ccc(-c3cncc(S(=O)(=O)NCC4CCCCCC4)c3)cn2n1
CCCCN(Cc1ccccc1)S(=O)(=O)c1cncc(-c2ccc3nc(N)nn3c2)c1
CN(C)C(=O)CNS(=O)(=O)c1cncc(-c2ccc3nc(N)nn3c2)c1
Nc1nc2ccc(-c3cncc(S(=O)(=O)NC4CC4)c3)cn2n1
CCCCNS(=O)(=O)c1cncc(-c2ccc3nc(N)nn3c2)c1
CN(Cc1ccccc1)S(=O)(=O)c1cncc(-c2ccc3nc(N)nn3c2)c1
Nc1nc2ccc(-c3cncc(S(=O)(=O)NCC4CCCC4)c3)cn2n1
Nc1nc2ccc(-c3cccc(C(=O)O)c3)cn2n1
Nc1nc2ccc(-c3cncc(S(=O)(=O)Nc4cccc(F)c4)c3)cn2n1
